Measured values from ChEMBL document CHEMBL4359912, “Novel N-Substituted oseltamivir derivatives as potent influenza neuraminidase inhibitors: Design, synthesis, biological evaluation, ADME prediction and molecular docking studies” (Eur J Med Chem, 2019).

Biological target: Neuraminidase (Influenza A virus (A/Memphis/1/1971(H3N2)), UniProt P03471)
Assay: Inhibition of influenza A virus H3N2 clinical isolate neuraminidase using NA-Fluor MUNANA as substrate preincubated for 20 to 30 mins followed by substrate addition and measured for 60 mins by fluorescence assay

Neuraminidase (Influenza A virus (A/Memphis/1/1971(H3N2)), UniProt P03471), sequence (P03471 whole entry): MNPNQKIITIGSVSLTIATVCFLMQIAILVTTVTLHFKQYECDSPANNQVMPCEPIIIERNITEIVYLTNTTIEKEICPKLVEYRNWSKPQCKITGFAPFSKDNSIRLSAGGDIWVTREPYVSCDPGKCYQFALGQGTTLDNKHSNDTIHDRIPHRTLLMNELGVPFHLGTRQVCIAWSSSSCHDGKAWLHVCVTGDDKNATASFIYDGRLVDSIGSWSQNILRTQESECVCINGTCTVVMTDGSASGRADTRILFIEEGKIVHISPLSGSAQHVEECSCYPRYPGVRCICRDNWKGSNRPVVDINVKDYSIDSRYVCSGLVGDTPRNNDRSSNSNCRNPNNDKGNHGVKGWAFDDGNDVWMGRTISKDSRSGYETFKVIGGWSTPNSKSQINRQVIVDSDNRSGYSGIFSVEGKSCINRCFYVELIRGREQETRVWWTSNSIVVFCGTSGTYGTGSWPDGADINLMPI

CCC(CC)O[C@@H]1C=C(C(=O)O)C[C@H](NCc2noc(-c3ccco3)n2)[C@H]1NC(C)=O
IC50: 1.92 nM

CCC(CC)O[C@@H]1C=C(C(=O)O)C[C@H](NCc2ccc(-c3c(C)noc3C)o2)[C@H]1NC(C)=O
IC50: 1.63 nM
